According to US8846928B2 (Portola Pharmaceuticals, Inc., priority 2010, dated 2014):

Molecular target: T1, full length active recombinant SYK enzyme (Homo sapiens, UniProt P43405)
T1 construct: full length active recombinant SYK enzyme (Millipore, Calif.); purchased Millipore
Experiment: Inhibition of Syk tyrosine phosphorylation activity (LANCE TR-FRET kinase assay)
Type: biochemical

| SMILES | IC50 [nM] |
| --- | --- |
| CC[C@@H](Nc1nc(Nc2ccc3ccncc3c2)c(C(N)=O)cc1F)C(N)=O [Example 98, (R)-6-(1-amino-1-oxobutan-2-ylamino)-5-fluoro-2-(isoquinolin-7-ylamino)nicotinamide] | 10 to 100 |
| CC[C@@H](Nc1nc(Nc2ccc3ncccc3c2)c(C(N)=O)cc1F)C(N)=O [Example 100] | 10 to 100 |
| COC[C@H](N)CNc1ccc(C(N)=O)c(Nc2cccc(C)c2)n1 [Example 103, (R)-2-(m-toluidino)-6-(2-amino-3-methoxypropylamino)nicotinamide] | 100 to 1000 |
| Cc1cccc(Nc2nc(N[C@H](C)C(N)=O)ccc2C(N)=O)c1 [Example 104, (R)-2-(m-toluidino)-6-(1-amino-1-oxopropan-2-ylamino)nicotinamide] | 100 to 1000 |
| Cc1cccc(Nc2nc(N[C@H](CC(C)C)C(N)=O)ccc2C(N)=O)c1 [Example 105, (R)-6-(1-amino-4-methyl-1-oxopentan-2-ylamino)-2-(m-tolylamino)nicotinamide] | 100 to 1000 |
| CC(C)C[C@H](CN)Nc1nc(Nc2cccc(-n3nccn3)c2)c(C(N)=O)cc1C#N [Example 110, (R)-2-(3-(2H-1,2,3-triazol-2-yl)phenylamino)-6-(1-amino-4-methylpentan-2-ylamino)-5-cyanonicotinamide] | 1 to 10 |
| N#Cc1cc(C(N)=O)c(Nc2cccc(-n3nccn3)c2)nc1NC[C@@H](N)C1CC1 [Example 111, (S)-2-(3-(2H-1,2,3-triazol-2-yl)phenylamino)-6-(2-amino-2-cyclopropylethylamino)-5-cyanonicotinamide] | 100 to 1000 |
| N#Cc1cc(C(N)=O)c(Nc2ccc3ncccc3c2)nc1N[C@@H]1CCCC[C@@H]1N [Example 113, 6-((1R,2S)-2-aminocyclohexylamino)-5-cyano-2-(quinolin-6-ylamino)nicotinamide] | 1 to 10 |
| NC(=O)c1cc(C(N)=O)c(N[C@@H]2CCCC[C@@H]2N)nc1Nc1cccc(-n2nccn2)c1 [Example 116, 2-(3-(2H-1,2,3-triazol-2-yl)phenylamino)-6-((1R,2S)-2-aminocyclohexylamino)pyridine-3,5-dicarboxamide] | 100 to 1000 |
| N#Cc1cc(C(N)=O)c(Nc2ccc3[nH]ncc3c2)nc1N[C@@H]1CCCC[C@@H]1N [Example 117] | 1 to 10 |
| N#Cc1cc(C(N)=O)c(Nc2ccc3ncsc3c2)nc1N[C@@H]1CCCC[C@@H]1N [Example 118, 6-((1R,2S)-2-aminocyclohexylamino)-2-(benzo[d]thiazol-6-ylamino)-5-cyanonicotinamide] | 1 to 10 |
| CC(C)C[C@H](CN)Nc1nc(Nc2ccc3ncccc3c2)c(C(N)=O)cc1C#N [Example 122, (R)-6-(1-amino-4-methylpentan-2-ylamino)-5-cyano-2-(quinolin-6-ylamino)nicotinamide] | 1 to 10 |
| CC(C)C[C@H](CN)Nc1nc(Nc2ccc3ncsc3c2)c(C(N)=O)cc1C#N [Example 123, (R)-6-(1-amino-4-methylpentan-2-ylamino)-2-(benzo[d]thiazol-6-ylamino)-5-cyanonicotinamide] | 1 to 10 |
| CC(C)C[C@@H](Nc1nc(Nc2cccc(-n3nccn3)c2)c(C(N)=O)cc1C#N)C(N)=O [Example 125, (R)-2-(3-(2H-1,2,3-triazol-2-yl)phenylamino)-6-(1-amino-4-methyl-1-oxopentan-2-ylamino)-5-cyanonicotinamide] | 100 to 1000 |
| CC(C)[C@@H](Nc1nc(Nc2cccc(-n3nccn3)c2)c(C(N)=O)cc1C#N)C(N)=O [Example 126, (R)-2-(3-(2H-1,2,3-triazol-2-yl)phenylamino)-6-(1-amino-3-methyl-1-oxobutan-2-ylamino)-5-cyanonicotinamide] | > 1000 |
| CC(C)[C@H](CN)Nc1nc(Nc2ccc3ncccc3c2)c(C(N)=O)cc1C#N [Example 128, (R)-6-(1-amino-3-methylbuttan-2-ylamino)-5-cyano-2-(quinolin-6-ylamino)nicotinamide] | 1 to 10 |
| N#Cc1cc(C(N)=O)c(Nc2cnc3ccccc3c2)nc1N[C@@H]1CCCC[C@@H]1N [Example 129] | 1 to 10 |
| N#Cc1cc(C(N)=O)c(Nc2cccc(-c3ncccn3)c2)nc1N[C@@H]1CCCC[C@@H]1N [Example 130] | 1 to 10 |
| N#Cc1cc(C(N)=O)c(Nc2cccc(-c3ccccn3)c2)nc1N[C@@H]1CCCC[C@@H]1N [Example 131, 6-((1R,2S)-2-aminocyclohexylamino)-5-cyano-2-(3-(pyridin-2-yl)phenylamino)nicotinamide] | 1 to 10 |
| NC(=O)c1ccc(N[C@@H]2CCCC[C@@H]2N)nc1Nc1cccc(-n2nccn2)c1 [Example 132, 2-(3-(2H-1,2,3-triazol-2-yl)phenylamino)-6-((1R,2S)-2-aminocyclohexylamino)nicotinamide] | 1 to 10 |
| NC(=O)c1ccc(N[C@@H]2CCCC[C@@H]2N)nc1Nc1ccc2ncccc2c1 [Example 134, 2-(quinolin-6-ylamino)-6-((1R,2S)-2-aminocyclohexylamino)nicotinamide] | 1 to 10 |
| Cn1ncc2c(Nc3nc(N[C@@H]4CCCC[C@@H]4N)c(F)cc3C(N)=O)cccc21 [Example 136, 2-(1-methyl-1H-indazol-4-ylamino)-6-((1R,2S)-2-aminocyclohexylamino)-5-fluoronicotinamide] | 1 to 10 |
| NC(=O)c1ccc(N[C@@H]2CCCC[C@@H]2N)nc1Nc1cccc(-n2cncn2)c1 [Example 138, 2-(3-(1H-1,2,4-triazol-1-yephenylamino)-6-(1R,2S)-2-aminocyclohexylamino)nicotinamide] | 1 to 10 |
| Cn1ncc2cc(Nc3nc(N[C@@H]4CCCC[C@@H]4N)c(F)cc3C(N)=O)ccc21 [Example 139, 2-(1-methyl-1H-indazol-5-ylamino)-6-((1R,2S)-2-aminocyclohexylamino)-5-fluoronicotinamide] | 1 to 10 |
| Cc1cc(Nc2cc(N[C@@H]3CCCC[C@@H]3N)ccc2C(N)=O)on1 [Example 147, 4-((1R,2S)-2-aminocyclohexylamino)-2-(3-methylisoxazol-5-ylamino)benzamide] | 100 to 1000 |

Continued, values first:

| IC50 [nM] | SMILES |
| --- | --- |
| 10 to 100 | CC[C@@H](Nc1nc(Nc2ccc3cnccc3c2)c(C(N)=O)cc1F)C(N)=O [Example 99] |
| 1 to 10 | Cc1cccc(Nc2nc(N[C@@H]3CCCC[C@@H]3N)ccc2C(N)=O)c1 [Example 102, 6-((1R,2S)-2-aminocyclohexylamino)-2-(m-tolylamino)nicotinamide] |
| 1 to 10 | N#Cc1cc(C(N)=O)c(Nc2cccc(-n3nccn3)c2)nc1N[C@@H]1CCCC[C@@H]1N [Example 106, 2-(3-(2H-1,2,3-triazol-2-yl)phenylamino)-6-((1R,2S)-2-aminocyclohexylamino)-5-cyanonicotinamide] |
| 1 to 10 | Cc1cccc(Nc2nc(N[C@@H]3CCCC[C@@H]3N)c(C#N)cc2C(N)=O)c1 [Example 107, 6-((1R,2S)-2-aminocyclohexylamino)-5-cyano 2-(m-tolylamino)nicotinamide] |
| 10 to 100 | C[C@H](N)CNc1nc(Nc2cccc(-n3nccn3)c2)c(C(N)=O)cc1C#N [Example 108, (S)-2-(3-(2H-1,2,3-triazol-2-yl)phenylamino)-6-(2-aminopropylamino)-5-cyanonicotinamide] |
| 10 to 100 | C[C@H](CN)Nc1nc(Nc2cccc(-n3nccn3)c2)c(C(N)=O)cc1C#N [Example 109, (R)-2-(3-(2H-1,2,3-triazol-2-yl)phenylamino)-6-(1-aminopropan-2-ylamino)-5-cyanonicotinamide] |
| 10 to 100 | C[C@H](CN)Nc1nc(Nc2cccc3nn(C)cc23)c(C(N)=O)cc1C#N [Example 112, (R)-6-(1-aminopropan-2-ylamino)-5-cyano-2-(2-methyl-2H-indazol-4-ylamino)nicotinamide] |
| 10 to 100 | C[C@H](CN)Nc1nc(Nc2ccc3ncccc3c2)c(C(N)=O)cc1C#N [Example 114, (R)-6-(1-aminopropan-2-ylamino)-5-cyano-2-(quinolin-6-ylamino)nicotinamide] |
| 1 to 10 | Cn1cc2c(Nc3nc(N[C@@H]4CCCC[C@@H]4N)c(C#N)cc3C(N)=O)cccc2n1 [Example 115, 6-((1R,2S)-2-aminocyclohexylamino)-5-cyano-2-(2-methyl-2H-indazol-4-ylamino)nicotinamide] |
| 10 to 100 | N#Cc1cc(C(N)=O)c(Nc2ccc3ncsc3c2)nc1NC[C@@H](N)C1CC1 [Example 119, (S)-6-(2-amino-2-cyclopropylethylamino)-2-(benzo[d]thiazol-6-ylamino)-5-cyanonicotinamide] |
| 1 to 10 | Cn1ncc2c(Nc3nc(N[C@@H]4CCCC[C@@H]4N)c(C#N)cc3C(N)=O)cccc21 [Example 120, 6-((1R,2S)-2-aminocyclohexylamino)-5-cyano-2-(1-methyl-1H-indazol-4-ylamino)nicotinamide] |
| 10 to 100 | N#Cc1cc(C(N)=O)c(Nc2ccc(-n3cccn3)cc2)nc1N[C@@H]1CCCC[C@@H]1N [Example 121, 2-(4-(1H-pyrazol-1-yephenylamino)-6-(1R,2S)-2-aminocyclohexylamino)-5-cyanonicotinamide] |
| 10 to 100 | CC(C)C[C@@H](Nc1nc(Nc2ccc3ncccc3c2)c(C(N)=O)cc1C#N)C(N)=O [Example 124, (R)-6-(1-amino-4-methyl-1-oxopentan-2-ylamino)-2-(quinolin-6-ylamino)-5-cyanonicotinamide] |
| 10 to 100 | NC(=O)c1ccc(N[C@@H]2CCCC[C@@H]2N)nc1Nc1cccc(-c2ncccn2)c1 [Example 133, 2-(3-(pyrimidin-2-yl)phenylamino)-6-((1R,2S)-2-aminocyclohexylamino)nicotinamide] |
| 1 to 10 | NC(=O)c1ccc(N[C@@H]2CCCC[C@@H]2N)nc1Nc1ccc2cnccc2c1 [Example 135, 2-(isoquinolin-6-ylamino)-6-((1R,2S)-2-aminocyclohexylamino)nicotinamide] |
| 1 to 10 | NC(=O)c1ccc(N[C@@H]2CCCC[C@@H]2N)nc1Nc1ccc2ccncc2c1 [Example 137, 2-(isoquinolin-7-ylamino)-6-((1R,2S)-2-aminocyclohexylamino)nicotinamide] |
| > 1000 | NC(=O)c1cc(F)c(N[C@H]2CCCNC2)nc1Nc1ccc2ncccc2c1 [Example 143, (S)-5-fluoro-6-(piperidin-3-ylamino)-2-(quinolin-6-ylamino)nicotinamide] |
